Patent US10793563B2, “GCN2 inhibitors and uses thereof” (Merck Patent GmbH, priority 2018, dated 2020)

Tests used:
[1] = biological target: GCN2 kinase (Homo sapiens (Human), UniProt Q9P2K8); experiment: GCN2 Enzyme Inhibition Assay (Transcreener ADP2 fluorescence polarization); type: biochemical; conditions: 280 μM ATP, 200 μM (RS)7 peptide, 4 nM GCN2, 25° C.; for Ki: Ki(app)
Procedure, shortened: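 Transcreener ADP2 fluorescence polarization detection of ADP from 4 nM GCN2 with (RS)7 substrate in 25 mM Tris-HCl pH 7.5, 50 mM NaCl, 10 mM MgCl2, 1 mM DTT. Compound pre-incubated with enzyme 10 min at 25 °C; reaction started by ATP, run 1 h at 25 °C. IC50 and Ki(app) by tight-binding fit.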

[2] = biological target: intracellular GCN2 (phosphorylation of the GCN2 substrate eIF2α) (Homo sapiens (Human), UniProt Q9P2K8); experiment: GCN2 Cellular Inhibition Assay (AlphaScreen SureFire P-eIF2α Ser51, borrelidin-treated U2OS cells); type: cell-based; conditions: 10 μM borrelidin, 1 h, phosphorylated eIF2α Ser51, read-out: GCN2 Biomarker (IC50)
Procedure, shortened: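 U2OS cells adhered overnight, then given compound (top 40 μM, 4-fold serial dilutions) plus 10 μM borrelidin for 1 h at 37 °C. Lysates assayed for eIF2α phospho-Ser51 by AlphaScreen SureFire; % inhibition versus borrelidin-only wells.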

Sequence of intracellular GCN2 (phosphorylation of the GCN2 substrate eIF2α) (Q9P2K8 whole entry): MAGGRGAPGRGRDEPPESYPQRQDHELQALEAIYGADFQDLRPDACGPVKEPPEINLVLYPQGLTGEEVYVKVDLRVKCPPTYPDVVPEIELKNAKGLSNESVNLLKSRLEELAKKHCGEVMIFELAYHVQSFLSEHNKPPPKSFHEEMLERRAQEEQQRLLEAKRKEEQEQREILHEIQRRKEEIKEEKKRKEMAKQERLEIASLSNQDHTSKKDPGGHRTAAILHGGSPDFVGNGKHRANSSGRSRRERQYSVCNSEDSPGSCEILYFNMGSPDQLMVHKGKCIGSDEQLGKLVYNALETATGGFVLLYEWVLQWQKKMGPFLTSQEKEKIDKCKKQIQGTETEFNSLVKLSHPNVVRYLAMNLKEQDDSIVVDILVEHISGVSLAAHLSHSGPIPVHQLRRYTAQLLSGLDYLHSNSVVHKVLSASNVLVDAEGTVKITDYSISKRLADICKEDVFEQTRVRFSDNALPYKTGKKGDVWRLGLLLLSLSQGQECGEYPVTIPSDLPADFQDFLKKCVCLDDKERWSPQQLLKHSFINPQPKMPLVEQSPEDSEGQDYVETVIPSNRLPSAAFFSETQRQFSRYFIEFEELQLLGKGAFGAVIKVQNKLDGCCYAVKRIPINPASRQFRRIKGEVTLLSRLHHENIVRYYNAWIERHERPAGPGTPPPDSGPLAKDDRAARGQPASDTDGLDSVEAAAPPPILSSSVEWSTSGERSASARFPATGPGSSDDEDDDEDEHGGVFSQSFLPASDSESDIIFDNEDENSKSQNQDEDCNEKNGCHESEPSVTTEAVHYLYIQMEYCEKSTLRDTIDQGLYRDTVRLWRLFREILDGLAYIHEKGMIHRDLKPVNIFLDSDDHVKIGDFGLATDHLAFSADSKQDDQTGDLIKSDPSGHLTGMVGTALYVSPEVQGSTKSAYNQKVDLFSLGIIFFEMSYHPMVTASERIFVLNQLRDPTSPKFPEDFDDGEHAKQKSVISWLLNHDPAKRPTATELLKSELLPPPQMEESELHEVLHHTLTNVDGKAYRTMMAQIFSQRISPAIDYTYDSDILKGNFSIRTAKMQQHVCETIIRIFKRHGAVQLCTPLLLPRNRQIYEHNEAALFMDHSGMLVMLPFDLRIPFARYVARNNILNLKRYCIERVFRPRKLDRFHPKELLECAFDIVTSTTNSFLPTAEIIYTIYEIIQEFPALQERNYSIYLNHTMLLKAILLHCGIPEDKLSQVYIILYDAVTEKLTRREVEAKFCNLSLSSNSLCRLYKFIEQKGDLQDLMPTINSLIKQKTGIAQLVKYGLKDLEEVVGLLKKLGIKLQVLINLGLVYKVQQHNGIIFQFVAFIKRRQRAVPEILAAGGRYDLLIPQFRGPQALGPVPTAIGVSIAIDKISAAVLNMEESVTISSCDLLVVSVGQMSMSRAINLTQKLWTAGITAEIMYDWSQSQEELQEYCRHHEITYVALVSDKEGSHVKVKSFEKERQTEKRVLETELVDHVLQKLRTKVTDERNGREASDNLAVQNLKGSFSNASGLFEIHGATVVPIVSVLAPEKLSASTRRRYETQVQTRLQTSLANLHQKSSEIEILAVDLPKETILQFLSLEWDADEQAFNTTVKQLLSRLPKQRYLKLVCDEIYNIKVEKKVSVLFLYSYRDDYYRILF
Sequence of GCN2 kinase (Q9P2K8 whole entry): as above

Row | Ki [1] [nM] | IC50 [2] [nM] | IC50 [1] [nM] | SMILES
1 | 10 to 100 | 500 to 5000 |  | CS(=O)(=O)NC[C@@H]1CN(c2nc(-c3cnc4ccc(C(F)(F)F)cn34)cs2)CCO1 [I-111, (S)—N-((4-(4-(6-(trifluoromethyl)imidazo[1,2-a]pyridin-3-yl)thiazol-2-yl)morpholin-2-yl)methyl)methanesulfonamide]
2 |  | < 500 | < 10 | FC(F)(F)c1ccc2ncc(-c3nccc(N4CCN(CC5CC56CCOCC6)C(c5cn[nH]c5)C4)n3)n2c1 (stereo not drawn) [I-476, 4-[4-({6-oxaspiro[2.5]octan-1-yl}methyl)-3-(1H-pyrazol-4-yl)piperazin-1-yl]-2-[6-(trifluoromethyl)imidazo[1,2-a]pyridin-3-yl]pyrimidine]
3 |  | > 5000 | 100 to 1000 | FC(F)(F)c1ccc2ncc(-c3nccc(N4CCCC5(CNC5)C4)n3)n2c1 [I-413, 6-(2-(6-(trifluoromethyl)imidazo[1,2-a]pyridin-3-yl)pyrimidin-4-yl)-2,6-diazaspiro[3.5]nonane]
4 |  | 500 to 5000 | 100 to 1000 | CC1CN(c2ccnc(-c3cnc4ccc(C(F)(F)F)cn34)n2)CC(C)N1CC#N (stereo not drawn) [I-393, 2-(2,6-dimethyl-4-(2-(6-(trifluoromethyl)imidazo[1,2-a]pyridin-3-yl)pyrimidin-4-yl)piperazin-1-yl)acetonitrile]
5 |  | 500 to 5000 | 100 to 1000 | CC(C)(C)OC(=O)N1CC2(CCCN(c3ccnc(-c4cnc5ccc(C(F)(F)F)cn45)n3)C2)C1 [I-387, tert-butyl 6-(2-(6-(trifluoromethyl)imidazo[1,2-a]pyridin-3-yl)pyrimidin-4-yl)-2,6-diazaspiro[3.5]nonane-2-carboxylate]
6 |  | 500 to 5000 | 10 to 100 | CC1(C)CN(c2ccnc(-c3cnc4ccc(C(F)(F)F)cn34)n2)CC2(CN(S(C)(=O)=O)C2)O1 [I-304, 6,6-dimethyl-2-(methylsulfonyl)-8-(2-(6-(trifluoromethyl)imidazo[1,2-a]pyridin-3-yl)pyrimidin-4-yl)-5-oxa-2,8-diazaspiro[3.5]nonane]
7 | 10 to 100 | 500 to 5000 |  | C[C@H]1CN(c2ccnc(-c3cnc4ccc(C(F)(F)F)cn34)n2)C[C@@H](CNS(C)(=O)=O)C1(F)F (stereo in doubt) [I-8, N-[[-4,4-Difluoro-5-methyl-1-[2-[6-(trifluoromethyl)imidazo[1,2-a]pyridin-3-yl]pyrimidin-4-yl]-3-piperidyl]methyl]methanesulfonamide]
8 |  | 500 to 5000 | 100 to 1000 | FC(F)(F)c1ccc2ncc(-c3nccc(N4CCCC(n5ccc(C(F)(F)F)n5)C4)n3)n2c1 (stereo not drawn) [I-355, 6-(trifluoromethyl)-3-(4-(3-(3-(trifluoromethyl)-1H-pyrazol-1-yl)piperidin-1-yl)pyrimidin-2-yl)imidazo[1,2-a]pyridine]
9 |  | 500 to 5000 | 100 to 1000 | Cc1[nH]ncc1[C@@H]1[C@@H](C)N(c2ccnc(-c3cnc4ccc(C(F)(F)F)cn34)n2)CCN1C1COC1 [I-368]
10 |  | > 5000 | 100 to 1000 | O=S(=O)(NC1CC1)c1ccc2ncc(-c3nccc(N4CCCC(c5cn[nH]c5)C4)n3)n2c1 (stereo not drawn) [I-318, 3-(4-(3-(1H-pyrazol-4-yl)piperidin-1-yl)pyrimidin-2-yl)-N-cyclopropylimidazo[1,2-a]pyridine-6-sulfonamide]
11 | < 10 | < 500 |  | Clc1ccc2ncc(-c3nccc(N4CCOC(c5cn[nH]c5)C4)n3)n2c1 (stereo not drawn) [I-20, 4-[2-(6-Chloroimidazo[1,2-a]pyridin-3-yl)pyrimidin-4-yl]-2-(1H-pyrazol-4-yl)morpholine]
12 |  | < 500 | 10 to 100 | FC(F)(F)c1ccc2ncc(-c3nccc(N4CCN(C[C@@H]5CC56CCOCC6)[C@H](c5cn[nH]c5)C4)n3)n2c1 [I-520, 3-(4-((R)-4-(((R)-6-oxaspiro[2.5]octan-1-yl)methyl)-3-(1H-pyrazol-4-yl)piperazin-1-yl)pyrimidin-2-yl)-6-(trifluoromethyl)imidazo[1,2-a]pyridine]
13 |  | 500 to 5000 | 100 to 1000 | C[C@@H]1[C@@H](c2cn[nH]c2)NCCN1c1ccnc(-c2cnc3ccc(C(F)(F)F)cn23)n1 [I-536, 3-(4-((2R,3R)-2-methyl-3-(1H-pyrazol-4-yl)piperazin-1-yl)pyrimidin-2-yl)-6-(trifluoromethyl)imidazo[1,2-a]pyridine]
14 | 10 to 100 | > 5000 |  | CS(C)(=O)=NC1CCCN(c2ccnc(-c3cnc4cc(F)c(Cl)cn34)n2)C1 (stereo not drawn) [I-49, ((1-(2-(6-Chloro-7-fluoroimidazo[1,2-a]pyridin-3-yl)pyrimidin-4-yl)piperidin-3-yl)imino)dimethyl-λ^6-sulfanone]
15 |  | < 500 | < 10 | FC(F)(F)c1ccc2ncc(-c3nccc(N4CCN(C[C@@H]5CC56CCOCC6)[C@@H](c5cn[nH]c5)C4)n3)n2c1 [I-522, 3-(4-((S)-4-(((R)-6-oxaspiro[2.5]octan-1-yl)methyl)-3-(1H-pyrazol-4-yl)piperazin-1-yl)pyrimidin-2-yl)-6-(trifluoromethyl)imidazo[1,2-a]pyridine]
16 |  | 500 to 5000 | 10 to 100 | NC(=O)C1(O)CCCN(c2ccnc(-c3cnc4ccc(C(F)(F)F)cn34)n2)C1 (stereo not drawn) [I-213, 3-hydroxy-1-(2-(6-(trifluoromethyl)imidazo[1,2-a]pyridin-3-yl)pyrimidin-4-yl)piperidine-3-carboxamide]
17 |  | < 500 | 10 to 100 | CCOC1(N2CCN(c3ccnc(-c4cnc5ccc(C(F)(F)F)cn45)n3)C(C)C2c2cn[nH]c2)CC1 (stereo not drawn) [I-348, 3-(4-(4-(1-ethoxycyclopropyl)-2-methyl-3-(1H-pyrazol-4-yl)piperazin-1-yl)pyrimidin-2-yl)-6-(trifluoromethyl)imidazo[1,2-a]pyridine]
18 | < 10 | < 500 |  | CS(=O)(=O)NC[C@@H]1CN(c2nc(-c3cnc4ccc(C(F)F)cn34)ns2)CCO1 [I-107, (S)—N-((4-(3-(6-(difluoromethyl)imidazo[1,2-a]pyridin-3-yl)-1,2,4-thiadiazol-5-yl)morpholin-2-yl)methyl)methanesulfonamide]
19 | < 10 | < 500 | < 10 | CC1CC(C(N)=O)CN(c2ccnc(-c3cnc4ccc(C(F)(F)F)cn34)n2)C1 (stereo not drawn) [I-149, 5-Methyl-1-[2-(6-trifluoromethyl-imidazo[1,2-a]pyridin-3-yl)-pyrimidin-4-yl]-piperidine-3-carboxylic acid amide]
20 | 10 to 100 | 500 to 5000 |  | CS(=O)(=O)NC[C@@H]1CN(c2nsc(-c3cnc4ccc(C(F)(F)F)cn34)n2)CCO1 [I-109, (S)—N-((4-(5-(6-(trifluoromethyl)imidazo[1,2-a]pyridin-3-yl)-1,2,4-thiadiazol-3-yl)morpholin-2-yl)methyl)methanesulfonamide]
21 |  | 500 to 5000 | 100 to 1000 | FC(F)(F)c1ccc2ncc(-c3nccc(N4CCC[C@H](C(F)(F)F)C4)n3)n2c1 [I-233, (S)-6-(trifluoromethyl)-3-(4-(3-(trifluoromethyl)piperidin-1-yl)pyrimidin-2-yl)imidazo[1,2-a]pyridine]
22 | 10 to 100 | 500 to 5000 |  | CS(=O)(=O)NC[C@@H]1CN(c2ccnc(-c3cnc4ccc(C(F)(F)F)cn34)n2)CCO1 [I-1, N-[[(2S)-4-[2-[6-(Trifluoromethyl)imidazo[1,2-a]pyridin-3-yl]pyrimidin-4-yl]morpholin-2-yl]methyl]methanesulfonamide]
